Where a SMILES comes first, the peptide text is derived from it. The star is where a group is joined. Cbz = O=C(OCc1ccccc1)*
Key:
[1] = system: HIV-1 Tat (p14, p16) and Gag; assay: Rescue of Tat/Gag expression by proteasome inhibitor MG132; type: cell-based; settings: MG132 10 μM for 8 h, with 791, 833 or 892
Method: To assess effect of compounds on HIV-1 Tat stability, the decay of HIV-1 Tat levels was compared between DMSO-treated and compound-treated protein lysates in the presence of cycloheximide. In the first set of experiments, HIV-1 gene expression was induced with doxycylin (dox) for 24 h then 10 μg/mL cycloheximide was added to block new protein synthesis in combination with either DMSO or the compounds. Cells were harvested every 2 h and Tat protein levels measured by western blot. Quantification of the relative intensity of the detected bands was performed using ImageLab software (BioRad) and normalized to corresponding bands of the loading control (GAPDH) from at least three independent experiments. To determine whether the compounds’ effect on HIV-1 gene expression could be reversed by inhibition of the proteasome, compound treatment assay was performed as previously described with the addition of 10 μM MG132 (Sigma-Aldrich) to compound-treated cells 8 h prior to harvesting. Equal amounts of protein were run on 13 or 14% gels by SDS-PAGE, blotted and probed with antibodies for Tat and GAPDH. Quantification of the relative intensity of the detected bands was performed using ImageLab software (BioRad) and normalized to corresponding bands of the loading control (GAPDH) from at least three independent experiments.

p53 = system: p53; parameters: method as in PMID 27283735; settings: cited from earlier work
[2] = system: total protein synthesis in HeLa HIVrtTA∆Mls cells; assay: SUnSET total protein synthesis; type: cell-based; settings: negative control
Method: The effect of the compounds on nascent protein synthesis was measured by surface sensing of translation (SUnSET) as described by Schmidt et al.. Cells were incubated with puromycin, an aminoacyl tRNA analog, to allow puromycin incorporation into newly translated peptides and prevention of further ribosomal elongation by chain termination. To assess the effect of the compounds on protein translation, cells were prepared and treated as described above, but were incubated with 10 μg/mL of puromycin for a period of 30 min prior to harvesting cell lysates for protein analysis. Protein concentration of cell lysates was quantified by Bradford assay and equal amounts of protein (30–35 μg) was run on either 10% or 4–15% (gradient) gels. Following transfer to PVDF (BioRad), blots were probed with mouse monoclonal antibody to puromycin (anti-12D10, EMD Millipore). Blots were developed using ECL Plus (Perkin-Elmer) or Clarity (BioRad) and imaged using the ChemiDoc MP Imager (BioRad). To quantify the levels of protein synthesis, the volume intensity in each lane of compound-treated sample was calculated relative to the DMSO-treated sample and normalized to GAPDH loading control using ImageLab software (BioRad) from at least four independent experiments.

HIV-1 US, SS and MS RNAs = assay: qRTPCR of HIV-1 RNAs in 293T cells transfected with pHxbc2 R-/RI-; type: cell-based; settings: 20 nM, 24 h, 293T (Figure S6)
Method: Samples were processed and assayed as previously described using the BioRad Aurum Total RNA Lysis Kit (BioRad) as per manufacturer’s instructions with the addition of Turbo DNase (Ambion). Purified RNA (0.5–2 μg) was reverse transcribed using M-MLV (Invitrogen) to generate complementary DNA (cDNA). HIV-1 and actin mRNA levels in DMSO- and compound-treated samples were quantified by qPCR using the Mastercycler ep realplex (Eppendorf) as described by Wong et al.. Gene quantification was evaluated using the absolute quantification method, normalized to β-actin expression, and expressed relative to DMSO-treatment.
Additional file 1: Figure S1. […] Cell viability was measured by an XTT assay. […] Cells were analyzed after 24 h incubation with the compounds at the indicated concentrations ranging between 0–47 μM (791), 0–5 μM (833), or 0–62.5 μM (892). Results are expressed as the percentage (%) of viable cells relative to DMSO treatment ±SEM of two independent experiments performed in triplicate. […] Images are cropped to show a representative field of view. b The dose range of the compounds which inhibit HIV-1 GagGFP expression in HeLa rtTA HIVGagGFP C7 cells was measured by mean fluorescence intensity and expressed relative to fluorescence intensity in DMSO-treated samples (N ≥ 3, *p ≤ 0.05, **p ≤ 0.01, and ***p ≤ 0.001). […]

## CC(C)C[C@@H](C=O)NC(=O)[C@H](CC(C)C)NC(=O)[C@H](CC(C)C)NC(=O)OCc1ccccc1 [MG132, reference compound] (Cbz-Leu-Leu-Leu-aldehyde)
[1]
  production of HIV-1 Gag on addition of MG132: did not restore

## COc1cc(/C=C/C(=O)CC(=O)/C=C/c2ccc(O)c(OC)c2)ccc1O [curcumin]
p53
  Tat and p53 levels: reduces

## C[C@@H]1C[C@@H]([C@H](O)CC2CC(=O)NC(=O)C2)C(=O)[C@@H](C)C1 [cycloheximide, reference compound]
[2]
  puromycin signal (newly synthesized polypeptides): little

## CCC(=C/[C@H](C)C/C=C/C(C)=C/[C@@H](C)C(=O)[C@@H](C)[C@H](O)[C@@H](C)C/C(C)=C/C(=O)O)/C=C/[C@@H]1OC(=O)C=C[C@@H]1C [leptomycin B]
HIV-1 US, SS and MS RNAs
  HIV-1 MS RNA abundance: little or no change
  HIV-1 US and SS RNA levels: dramatic reduction

Source: article PMC5267425, “Identification of small molecule modulators of HIV-1 Tat and Rev protein accumulation” (Retrovirology, 2017)
